“Also recorded” adds a separate entry of the source.
What was measured:
[1] = normal value; cited from earlier work
[2] = normal rats; ICG 10 μg/kg, sodium fluorescein 2 mg/kg; cited from earlier work
Mrp2, Mrp3, and Mrp4 = details: daily gavage for 4 days consecutively; normal mouse liver (without IRI); cited from earlier work
[3] = Sodium fluorescein clearance kinetics in blood and bile in the in vivo rat hepatic IRI model; set-up: species or system Sprague-Dawley rats
From the text: Male 7- to 8-wk-old Sprague-Dawley rats (median body weight of 243 g, interquartile range of 228-260 g, Charles River Laboratories) were housed in an animal facility accredited by the Association for Assessment and Accreditation of Laboratory Animal Care. The rats were fed Purina Lab Diet 5001 and reverse osmosis water ad libitum. All animals received humane care in accordance with the National Institutes of Health Guide for the Care and Use of Laboratory Animals. Only male rats were used in these experiments because multidrug resistance-associated protein 2 (MRP2), which is responsible for fluorescein excretion from the hepatocyte, is impaired by estradiol glucuronide. All experiments were approved by the Institutional Animal Care and Use Committee at the Medical College of Wisconsin (animal use Application No. 00004857).
We evaluated the effect of hepatic IRI on sodium fluorescein clearance by applying different warm ischemia times (WITs; 0 min, 30 min, or 60 min) and reperfusion times (1 h or 4 h). Thus, there were five experimental groups (n=5 each) based on ischemia and reperfusion times: no ischemia (control), brief ischemia (30 min) followed by 1 h of reperfusion, prolonged ischemia (60 min) followed by 1 h of reperfusion, brief ischemia (30 min) followed by 4 h of reperfusion, and prolonged ischemia (60 min) followed by 4 h of reperfusion (FIG. 32A).
Surgery was performed under isoflurane inhalation anesthesia (1%-3%; oxygen flow 1 L/min). Animals were placed on a warming pad set to obtain a temperature of around 39° C. (Far Infrared Warming Pad, Kent Scientific, Torrington, CT). A transverse abdominal incision was made, and the pedicles to the median and lateral lobes of the liver (˜70% of the volume of the liver) were temporarily occluded using a small vascular clamp (FE011K, Aesculap, Melsungen, Germany). This approach has been utilized for testing the effect of hepatic IRI on biliary excretion of fluorescein. During the designated time period for hepatic IRI, the abdominal wall was temporarily closed to prevent dehydration and heat loss.
For injection and sampling, blood vessels and the bile duct were cannulated as follows: a midline incision was made on the neck, and 8- to 10-cm polyethylene tubes were cannulated to the right jugular vein (0.58 mm inner diameter (ID)×0.97 mm outer diameter (OD); PE50, Braintree Scientific, Braintree, MA) and right carotid artery (0.28 mm ID×0.61 mm OD; PE10, Braintree Scientific, Braintree, MA). The polyethylene tubes in the vessels were attached to a 30-gauge blunt needle (SAI Infusion Technologies, Lake Villa, IL) and filled with 20 U/mL heparin in 0.9% saline. Another polyethylene tube (0.28 mm ID×0.61 mm OD; PE10, Braintree Scientific, Braintree, MA) was cannulated into the bile duct for bile sampling (FIG. 33B). The cannulation procedure was performed under a surgical microscope (Amscope, Irvine, CA).
Blood and bile were collected at eight time points over 60 min (0, 2, 5, 10, 20, 30, 45, and 60 min). At each time point, 180 μL of blood was collected by a heparin-coated syringe from the polyethylene tubing in the left carotid artery and mixed with 20 μL of heparin solution (10,000 U/mL). Of this 200-μL blood sample, 20 μL was used for whole blood analysis. The remaining 180 μL was centrifuged (3,000 rpm for 10 min), and 20 μL of supernatant was collected for plasma sample analysis. Likewise, 30 μL of bile was collected from the polyethylene tubing in the bile duct at each time point.
Once the baseline (0 min) samples were collected, sodium fluorescein (Sigma-Aldrich, St. […]
The blood, plasma, and bile samples (20 μL each) were placed in a 384-well plate (Greiner Bio-one, Monroe, NC) and covered with plastic film to minimize evaporation. The fluorescence intensity was measured in the samples using a microplate reader (CLARIOstar, BMG Labtech, Ortenberg, Germany), with the excitation set at 478 nm and emission light collected within the 505-552-nm spectral range. […]

[4] = cited from earlier work
[5] = Fluorescein clearance (bile-to-perfusate fluorescence) in ex vivo rat liver machine perfusion; details: WIT varied, CIT constant at 3 hours
From the text: This Example presents data obtained using ex vivo rat liver tissue in a perfusion machine system and provides further evidence supporting the usefulness of such measurements as a way to assess transplant tissue health and quality. With liver transplant there are two ischemia times: warm ischemia time (WIT) which is the time from tissue removal from the donor until cold fluid perfusion into the liver tissue; after cold perfusion, the remaining ischemia is termed cold ischemia time (CIT), which is slower. Most liver tissue can tolerate up to 30 min. of WIT whereas CIT can be tolerated for up to 12 hours. A certain amount of WIT and CIT cannot be prevented since some time is always required at each stage, nevertheless the goal is to minimize WIT.
In the experiments of FIG. 39, the WIT was varied while keeping the CIT constant at 3 hours. After this regimen, the fluorescein clearance was tested and the ratio of fluorescein in bile relative to the amount in perfusate was determined at various times.

[6] = severe hepatic IRI (WIT=60 min) vs control and mild IRI groups, 2 mg/kg i.v.

| SMILES | ICG retention ratio after 15 min (ICGR15) [1] [%] | plasma disappearance rate (ICGPDR) [1] | time to reach a steady state [2] [min] | induction of Mrp2, Mrp3, and Mrp4 (Mrp2, Mrp3, and Mrp4) | bile-to-plasma fluorescence ratios across warm ischemia time (WIT) groups ([3]; 2 mg/kg i.v., WIT 0, 30, 60 min, 1 h or 4 h reperfusion) | bile-to-plasma (or bile-to-whole blood) fluorescence ratios in the 60-min WIT group ([3]; 2 mg/kg i.v., vs control or 30-min WIT groups) | excretion of fluorescein measured by fluorescence in bile samples ([3]; IRI vs control, intravenous infusion, preliminary in vivo rat experiment (FIG. 4)) | significant clearance of fluorescein from blood into bile ([3]; i.v. bolus 2 mg/kg) | delay of clearance from blood into bile ([3]; i.v. dose of 10 mg/kg) | hepatic clearance of fluorescein ([3]; in hepatic IRI) | fluorescence intensities in bile [3, 6] | fluorescence intensities in whole blood and plasma [3, 6] | time to equilibrium of fluorescence intensity in hepatocytes and bile ([4]; after dye injection) [min] | time in which metabolism by the liver through membrane transporters and excretion into bile occurs ([4]; healthy liver) [min] | time to clearance from the blood into the bile ([4]; intravenous administration, normal livers) [min] | area under the curve (AUC) of bile-to-perfusate fluorescence intensity [5] | time course of bile-to-perfusate fluorescence intensity values (excretion of fluorescein) [5] |
| --- | --- | --- | --- | --- | --- | --- | --- | --- | --- | --- | --- | --- | --- | --- | --- | --- | --- |
| CC1(C)C(/C=C/C=C/C=C/C=C2\N(CCCCS(=O)(=O)O)c3ccc4ccccc4c3C2(C)C)=[N+](CCCCS(=O)(=O)[O-])c2ccc3ccccc3c21 [ICG, Indocyanine green] | < 10 | over 18 %/min | < 30 | – | – | – | – | – | – | – | – | – | – | – | – | – | – |
| Cc1c(-c2cnccn2)ssc1=S [oltipraz] | – | – | – | induced | – | – | – | – | – | – | – | – | – | – | – | – | – |
| O=C1OC2(c3ccc(O)cc3Oc3cc(O)ccc32)c2ccccc21 [sodium fluorescein] | – | – | < 10 | – | inverse correlation with WIT; also recorded: stepwise decrease | distinctly lower | noticeably compromised | observed immediately | over 1 h | suppressed | lower | elevated | ≤ 5 | ≤ 15 | ≤ 5 | inversely correlated with WIT | compromised excretion |

Source: US20250324965A1, “Indicator Clearance Monitoring in Machine Perfusion of an Organ” (The Medical College of Wisconsin, Inc., priority 2021, published 2025)
